Measurements: the supplement of paper PMC8612539
≈ marks a conversion by molar mass, not a printed value.

Experiments:
[1] = system: Mannheimia haemolytica; experiment: minimum inhibitory concentration (MIC)
Protocol: (§1)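 Broth microdilution MIC (Sensititre BOPO7F bovine plate, CLSI methods) of 19 antimicrobials against field isolates of P. multocida, M. haemolytica, H. somni (deep nasopharyngeal swabs) and E. coli, Enterococcus spp. (rectal swabs) from weaned dairy heifers. Incubation 16-24 h at 35 C. MIC is the lowest concentration preventing visible growth. Values with <= or > lie at the tested range limits. Trimethoprim-sulfamethoxazole is given as the trimethoprim component of a 1:19 mixture.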

[2] = system: Enterococcus spp.; experiment: minimum inhibitory concentration (MIC)
Protocol: as §1

C=C[C@]1(C)C[C@@H](OC(=O)CSCCN(CC)CC)[C@]2(C)[C@H](C)CC[C@]3(CCC(=O)[C@H]32)[C@@H](C)[C@@H]1O [Tiamulin]
minimum inhibitory concentration [µg/mL]
Details | [1] | [2]
isolate (source animal id): 2 | – | 1 (≈ 2.03 µM)
isolate (source animal id): 8 | 8 (≈ 16.2 µM) | –
isolate (source animal id): 13 | 8 (≈ 16.2 µM) | –
isolate (source animal id): 18 | 8 (≈ 16.2 µM) | –
isolate (source animal id): 21 | 8 (≈ 16.2 µM) | –
isolate (source animal id): 25 | 32 (≈ 64.8 µM) | –
isolate (source animal id): 27 | 16 (≈ 32.4 µM) | –
isolate (source animal id): 28 | 32 (≈ 64.8 µM) | –
isolate (source animal id): 30 | 8 (≈ 16.2 µM) | –
isolate (source animal id): 31 | 32 (≈ 64.8 µM) | –
isolate (source animal id): 32 | 8 (≈ 16.2 µM) | –
isolate (source animal id): 34 | 8 (≈ 16.2 µM) | –
isolate (source animal id): 35 | – | > 32
isolate (source animal id): 36 | 32 (≈ 64.8 µM) | –
isolate (source animal id): 37 | 16 (≈ 32.4 µM) | –
isolate (source animal id): 40 | 8 (≈ 16.2 µM) | –
isolate (source animal id): 41 | 8 (≈ 16.2 µM) | –
isolate (source animal id): 42 | – | > 32
isolate (source animal id): 43 | 8 (≈ 16.2 µM) | –
isolate (source animal id): 44 | – | > 32
isolate (source animal id): 46 | 32 (≈ 64.8 µM) | –
isolate (source animal id): 49 | 16 (≈ 32.4 µM) | –
isolate (source animal id): 50 | 32 (≈ 64.8 µM) | –
isolate (source animal id): 51 | 8 (≈ 16.2 µM) | –
isolate (source animal id): 52 | 8 (≈ 16.2 µM) | –
isolate (source animal id): 53 | 8 (≈ 16.2 µM) | –
isolate (source animal id): 55 | 8 (≈ 16.2 µM) | –
isolate (source animal id): 56 | 8 (≈ 16.2 µM) | –
isolate (source animal id): 57 | 8 (≈ 16.2 µM) | –
isolate (source animal id): 79 | – | > 32
isolate (source animal id): 88 | – | 2 (≈ 4.05 µM)
isolate (source animal id): 91 | – | 2 (≈ 4.05 µM)
isolate (source animal id): 92 | – | > 32
isolate (source animal id): 100 | 16 (≈ 32.4 µM) | –
isolate (source animal id): 103 | 32 (≈ 64.8 µM) | –
isolate (source animal id): 107 | 16 (≈ 32.4 µM) | –
isolate (source animal id): 108 | 16 (≈ 32.4 µM) | –
isolate (source animal id): 111 | – | 2 (≈ 4.05 µM)
isolate (source animal id): 112 | 16 (≈ 32.4 µM) | –
isolate (source animal id): 113 | 8 (≈ 16.2 µM) | –
isolate (source animal id): 121 | 32 (≈ 64.8 µM) | –
isolate (source animal id): 122 | 16 (≈ 32.4 µM) | > 32
isolate (source animal id): 123 | 8 (≈ 16.2 µM) | > 32
isolate (source animal id): 126 | 32 (≈ 64.8 µM) | –
isolate (source animal id): 133 | 8 (≈ 16.2 µM) | ≤ 0.5
isolate (source animal id): 135 | 8 (≈ 16.2 µM) | –
isolate (source animal id): 138 | 32 (≈ 64.8 µM) | –
isolate (source animal id): 141 | 8 (≈ 16.2 µM) | –
isolate (source animal id): 142 | 32 (≈ 64.8 µM) | –
isolate (source animal id): 145 | 32 (≈ 64.8 µM) | –
isolate (source animal id): 149 | 8 (≈ 16.2 µM) | –
isolate (source animal id): 151 | 16 (≈ 32.4 µM) | –
isolate (source animal id): 152 | 32 (≈ 64.8 µM) | –
isolate (source animal id): 154 | 16 (≈ 32.4 µM) | –
isolate (source animal id): 158 | – | > 32
isolate (source animal id): 159 | 32 (≈ 64.8 µM) | –
isolate (source animal id): 162 | 16 (≈ 32.4 µM) | –
isolate (source animal id): 168 | – | 1 (≈ 2.03 µM)
isolate (source animal id): 169 | – | 1 (≈ 2.03 µM)
isolate (source animal id): 170 | > 32 | –
isolate (source animal id): 171 | 16 (≈ 32.4 µM) | > 32
isolate (source animal id): 172 | 32 (≈ 64.8 µM) | –
isolate (source animal id): 173 | > 32 | –
isolate (source animal id): 175 | – | > 32
isolate (source animal id): 177 | – | > 32
isolate (source animal id): 179 | 16 (≈ 32.4 µM) | –
isolate (source animal id): 180 | 16 (≈ 32.4 µM) | –
isolate (source animal id): 181 | – | 1 (≈ 2.03 µM)
isolate (source animal id): 182 | – | 1 (≈ 2.03 µM)
isolate (source animal id): 183 | 8 (≈ 16.2 µM) | > 32
isolate (source animal id): 186 | 8 (≈ 16.2 µM) | –
isolate (source animal id): 187 | 16 (≈ 32.4 µM) | 1 (≈ 2.03 µM)
isolate (source animal id): 188 | 8 (≈ 16.2 µM) | –
isolate (source animal id): 190 | 16 (≈ 32.4 µM) | 1 (≈ 2.03 µM)
isolate (source animal id): 191 | > 32 | –
isolate (source animal id): 192 | 16 (≈ 32.4 µM) | –
isolate (source animal id): 194 | – | > 32
isolate (source animal id): 195 | – | 1 (≈ 2.03 µM)
isolate (source animal id): 197 | – | 8 (≈ 16.2 µM)
isolate (source animal id): 201 | > 32 | –
isolate (source animal id): 202 | > 32 | –
isolate (source animal id): 209 | > 32 | –
isolate (source animal id): 211 | 32 (≈ 64.8 µM) | ≤ 0.5
isolate (source animal id): 214 | – | 16 (≈ 32.4 µM)
isolate (source animal id): 220 | 32 (≈ 64.8 µM) | –
isolate (source animal id): 221 | > 32 | –
isolate (source animal id): 222 | – | > 32
isolate (source animal id): 223 | > 32 | > 32
isolate (source animal id): 228 | – | ≤ 0.5
isolate (source animal id): 230 | – | ≤ 0.5
isolate (source animal id): 233 | 32 (≈ 64.8 µM) | –
isolate (source animal id): 235 | – | ≤ 0.5
isolate (source animal id): 236 | – | > 32
isolate (source animal id): 237 | 32 (≈ 64.8 µM) | –
isolate (source animal id): 239 | – | 2 (≈ 4.05 µM)
isolate (source animal id): 241 | > 32 | ≤ 0.5
isolate (source animal id): 244 | – | > 32
isolate (source animal id): 246 | – | > 32
isolate (source animal id): 247 | – | ≤ 0.5
isolate (source animal id): 250 | – | > 32
isolate (source animal id): 252 | 32 (≈ 64.8 µM) | > 32
isolate (source animal id): 253 | 16 (≈ 32.4 µM) | –
isolate (source animal id): 259 | 16 (≈ 32.4 µM) | –
isolate (source animal id): 260 | 32 (≈ 64.8 µM) | –
isolate (source animal id): 262 | 32 (≈ 64.8 µM) | –
isolate (source animal id): 268 | – | 1 (≈ 2.03 µM)
isolate (source animal id): 282 | 32 (≈ 64.8 µM) | > 32
isolate (source animal id): 285 | – | > 32
isolate (source animal id): 287 | 32 (≈ 64.8 µM) | –
isolate (source animal id): 288 | 8 (≈ 16.2 µM) | –
isolate (source animal id): 289 | – | > 32
isolate (source animal id): 290 | – | > 32
isolate (source animal id): 291 | 16 (≈ 32.4 µM) | –
isolate (source animal id): 293 | 32 (≈ 64.8 µM) | –
isolate (source animal id): 296 | – | > 32
isolate (source animal id): 298 | 16 (≈ 32.4 µM) | ≤ 0.5
isolate (source animal id): 299 | 16 (≈ 32.4 µM) | –
isolate (source animal id): 300 | 8 (≈ 16.2 µM) | –
isolate (source animal id): 301 | – | 32 (≈ 64.8 µM)
isolate (source animal id): 302 | 16 (≈ 32.4 µM) | –
isolate (source animal id): 304 | 16 (≈ 32.4 µM) | –
isolate (source animal id): 306 | 8 (≈ 16.2 µM) | –
isolate (source animal id): 308 | 8 (≈ 16.2 µM) | –
isolate (source animal id): 309 | 8 (≈ 16.2 µM) | –
isolate (source animal id): 310 | – | > 32
isolate (source animal id): 313 | 32 (≈ 64.8 µM) | –
isolate (source animal id): 318 | 16 (≈ 32.4 µM) | –
isolate (source animal id): 320 | 16 (≈ 32.4 µM) | > 32
isolate (source animal id): 321 | 32 (≈ 64.8 µM) | –
isolate (source animal id): 323 | 16 (≈ 32.4 µM) | –
isolate (source animal id): 324 | 32 (≈ 64.8 µM) | –
isolate (source animal id): 326 | > 32 | –
isolate (source animal id): 328 | 32 (≈ 64.8 µM) | –
isolate (source animal id): 329 | 32 (≈ 64.8 µM) | –
isolate (source animal id): 331 | – | > 32
isolate (source animal id): 333 | 32 (≈ 64.8 µM) | > 32
isolate (source animal id): 335 | 16 (≈ 32.4 µM) | –
isolate (source animal id): 338 | 32 (≈ 64.8 µM) | –
isolate (source animal id): 341 | – | > 32
